According to patent US11834696B2, “Antimicrobial susceptibility testing with large-volume light scattering imaging and deep learning video microscopy” (Arizona Board of Regents on behalf of Arizona State …, priority 2017, dated 2023):
Converted amounts (≈) assume the structure as drawn.

Legend:
E. coli [1] = experiment: Deep learning video microscopy-based antimicrobial susceptibility testing (DLVM-AST); assay type: cell-based, Escherichia coli (ATCC 43888); settings: for MIC: Escherichia coli
E. coli [2] = experiment: microbe, parasite or virus in culture; assay type: cell-based, Escherichia coli (ATCC 43888); settings: broth macrodilution, 37° C., triplicate; for MIC: Escherichia coli
Procedure: AST with broth macrodilution (BMD) method. For comparison, AST was also performed by the BMD method (CLSI gold standard^35). The adjusted inoculum E. coli suspension is diluted in Cation-adjusted Mueller Hinton Broth (CAMHB, Sigma-Aldrich) and the concentration of E. coli cell cultures are adjusted to 1×10^6 cells/mL based on UV-Vis spectrophotometer (NanoDrop 2000, Thermo Fisher) readings at OD600. […] After inoculation, each tube contains approximately 5×10^5 cells/mL. […] This test was performed in triplicate.

E. coli [3] = experiment: AST without DL (division feature only, cell counting from the videos); assay type: cell-based, Escherichia coli (ATCC 43888); settings: for MIC: Escherichia coli
Procedure: To further validate the DLVM-AST method, we counted the total number of bacteria cells (Ntotal) from the videos (as shown in FIG. 9), and plotted Ntotal (mean±std) vs. time for PMB at various concentrations (as shown in FIG. 11C).
Growth and preparation of E. coli. Frozen E. coli strains were thawed, and 50 μL of which were cultured in 5 mL of Luria-Bertani (LB) medium (Per liter: 10 g peptone 140, 5 g yeast extract, and 5 g sodium chloride) at 37° C. and 150 rpm for 16 hours. Saturated cultures in the volume of 20 μL were diluted into 5 mL of fresh LB medium, and growth continued at 37° C. with 150 rpm for 1 hour to attain a logarithmic phase of growth. Bacterial cells were collected by centrifugation at 450 g for 5 min and suspended in urine to a concentration of 2×10^7 cells/mL^36. This concentration was determined by measuring the extinction coefficients for E. coli from the Optical Density (OD600) reading taken with a spectrophototometer (NanoDrop™ 2000/2000c Spectrophotometers, Thermo Scientific). The calibration factor for bacterial cell cultures estimation was 8×10^8 cells/mL per OD600 unit. Before use, the bacteria-spiked urine samples were filtered using a 5 μm syringe filter (EMD Millipore) to remove large particles.
AST with video microscopy. The microfluidic chip was placed on an inverted microscope (Olympus IX-81) with a 40× phase contrast objective lens and imaged with a CCD camera (Pike-032B, Allied Vision Technologies, Newburyport, Mass.). A 200-μL bacterial suspension (2×10^7 cells/mL) was mixed with an equal volume of antibiotic solution for each antibiotic concentration or an equal volume of water as a control experiment. These mixed solutions were injected into different microfluidic channels simultaneously. After the microfluidic channels were fulfilled with these mixed solutions, two microfluidic valves of each detection channel were closed simultaneously to generate a stable microenvironment. Videos of the bacterial cells were recorded at 100 frames per second (fps) immediately (0 min) and after every 30 min. Each video lasted for 30 seconds. The raw images were batch-converted to 16-bit tiff format using a Matlab program and pre-processed to minimize background artifacts before being processed with the DL model. To include enough cells for reliable results, we integrated bacterial cells from three videos recorded from different experiments. Each experiment was repeated independently for three times.

E. coli [4] = experiment: Phenotypic features (motion, morphology) in recorded bacteria videos in presence of antibiotics; assay type: cell-based, Escherichia coli; settings: 3 hours
Procedure: Referring now simultaneously to FIG. 8A-FIG. 8C, phenotypic features in the recorded bacteria videos in the presence and absence of antibiotics are shown. […] Concentrations of PMB and aztreonam are 8 μg/mL and 0.5 μg/mL, respectively.
In principle, the raw bacterial videos could be used as inputs for a DL model, but the computational expense is impractical. In fact, few DL applications could use videos as input data directly even with high performance super-computers.^30-32 To overcome this difficulty, a method to compress the raw videos into static images without losing key phenotypic features was developed as described further below. This approach imitates human vision, which pre-processes raw images in the vision system to reduce complexity before passing them to the brain. The key phenotypic features in the video include cell division, motion, and morphology. […] Cell motion and morphology may also change when exposing the cell to antibiotics, thus serving as additional phenotypic features for AST. […]
AST with video microscopy. […] Videos of the bacterial cells were recorded at 100 frames per second (fps) immediately (0 min) and after every 30 min. […] To include enough cells for reliable results, we integrated bacterial cells from three videos recorded from different experiments. […]

[5] = tested on: E. coli O157 model strain; experiment: Susceptibility test with 40× optical microscope and imaging-processing algorithm tracking motion and growth; assay type: cell-based; settings: @30 mins; concentrated bacterial samples
Description: The inventors here have tested the susceptibility of E. coli O157 model strain to polymysin B (PMB, an antibiotic) using a 40× optical microscope. The individual bacterial cells 12 were identified, and their motions and growth were tracked using an imaging-processing algorithm. Inhibition curves were derived from the tracking data as shown below with respect to FIG. 4B and FIG. 4C. […] However, the experiment used concentrated bacterial samples, because the microscope has a small viewing size.

[6] = E. coli spiked in urine, triplicate
[7] = division feature only, triplicate

Row | Molecule | MIC (E. coli [1]; [6]) [µg/mL] | MIC (E. coli [2]) [µg/mL] | MIC (E. coli [3]; [7]) [µg/mL] | also measured
1 | [H]/N=C(/N)N[C@H]1[C@H](O)[C@@H](O)[C@H](O[C@@H]2O[C@@H](C)[C@](O)(C=O)[C@H]2O[C@@H]2O[C@@H](CO)[C@H](O)[C@@H](O)[C@@H]2NC)[C@@H](N/C(N)=N\[H])[C@@H]1O [Streptomycin, streptomycin] | 4 (≈ 6.88 µM) | 4 (≈ 6.88 µM) | 4 (≈ 6.88 µM) | 
2 | C[C@H]1[C@H](NC(=O)/C(=N\OC(C)(C)C(=O)O)c2csc(N)n2)C(=O)N1S(=O)(=O)O [Aztreonam, aztreonam] | 0.12 (≈ 0.276 µM) | 0.12 (≈ 0.276 µM) | 0.12 (≈ 0.276 µM) | effect on bacterial morphology (E. coli [4]; aztreonam 0.5 μg/mL): caused the bacterial cells to elongate
3 | polymyxin B |  |  |  | MIC, DLVM-AST (E. coli [1]; [6]): 2 µg/mL; MIC (concentration at which 90% of the bacterial cells are inhibited) (E. coli [1]; obtained 30 minutes after antibiotic treatment): 2 µg/mL; MIC, BMD (E. coli [2]): 2 µg/mL; MIC from Ntotal vs. antibiotic concentration (E. coli [3]; at 180 minutes, cell counting): ~2 µg/mL; MIC, AST Without DL (E. coli [3]; [7]): 1 to 2 µg/mL; effect on bacterial motion (E. coli [4]; PMB 8 μg/mL): decreased bacterial motion; MIC [5]: 2 µg/mL
4 | CC1(C)S[C@@H]2[C@H](NC(=O)[C@H](N)c3ccccc3)C(=O)N2[C@H]1C(=O)O [Ampicillin, ampicillin] | 2 (≈ 5.72 µM) | 2 (≈ 5.72 µM) | 2 (≈ 5.72 µM) | 
5 | O=C(O)c1cn(C2CC2)c2cc(N3CCNCC3)c(F)cc2c1=O [Ciprofloxacin, ciprofloxacin] |  |  | 0.015 to 0.03 (≈ 0.0453 to 0.0905 µM) | 
